Counter-ions that a name gives are not always drawn.
Row | melting point [°C] | SMILES
1 | 149 to 152 | Cl.Cn1c(-c2cc(F)ccc2F)nc2c(N)nc(C#CC3(O)CCC3)nc21
2 | 217 to 218 | CCn1c(-c2cc(F)cc(F)c2)nc2c(N)nc(C#CC3(O)CCCC3)nc21.Cl
3 | 234 to 235 | CCn1c(-c2cc(F)cc(F)c2)nc2c(N)nc(C#CC3(O)CCC3)nc21.Cl
4 | 265 to 266 | Cl.Nc1nc(C#CC2(O)CCCC2)nc2c1nc(-c1cc(F)cc(F)c1)n2C1CC1
5 | 228 | Cl.Nc1nc(C#CC2(O)CCC2)nc2c1nc(-c1cc(F)cc(F)c1)n2C1CC1
6 | 210 to 211 | CCCn1c(-c2cc(F)cc(F)c2)nc2c(N)nc(C#CC3(O)CCCC3)nc21.Cl
7 | 177 to 178 | Cl.Cn1c(-c2cc(F)ccc2F)nc2c(N)nc(C#CC(C)(C)O)nc21
8 | 138 to 140 | CCn1c(-c2cccc(F)c2F)nc2c(N)nc(C#CC3(O)CCCC3)nc21.Cl
9 | 167 to 170 | Cl.Nc1nc(C#CC2(O)CCC2)nc2c1nc(-c1cccc(F)c1)n2C1CC1
10 | 124 to 127 | CCCn1c(-c2cccc(F)c2F)nc2c(N)nc(C#CC3(O)CCC3)nc21.Cl
11 | 184 to 188 | CCCn1c(-c2cccc(F)c2F)nc2c(N)nc(C#CC3(O)CCCC3)nc21.Cl
12 | 161 to 164 | Cl.Nc1nc(C#CC2(O)CCC2)nc2c1nc(-c1cc(F)ccc1F)n2C1CC1
13 | 230 to 232 | Cl.Nc1nc(C#CC2(O)CCCC2)nc2c1nc(-c1cc(F)ccc1F)n2C1CC1
14 | 232 to 234 | CCCn1c(-c2cc(F)ccc2F)nc2c(N)nc(C#CC3(O)CCCC3)nc21.Cl
15 | 225 to 226 | CCCn1c(-c2cc(F)ccc2F)nc2c(N)nc(C#CC3(O)CCC3)nc21.Cl
16 | 141 to 143 | CCn1c(-c2cc(F)ccc2F)nc2c(N)nc(C#CC3(O)CCC3)nc21.Cl
17 | 191 to 194 | CCn1c(-c2cc(F)ccc2F)nc2c(N)nc(C#CC3(O)CCCC3)nc21.Cl
18 | 168 to 172 | Cl.Cn1c(-c2ccco2)nc2c(N)nc(C#CC3(O)CCCC3)nc21
19 | 255 to 258 | Cl.Cn1c(-c2cc(F)cc(F)c2)nc2c(N)nc(C#CC3(O)CCCC3)nc21
20 | 214 to 217 | Cn1c(-c2cc(F)cc(F)c2F)nc2c(N)nc(C#CC3(O)CCCC3)nc21 [Example 125, 1-{2-[6-Amino-9-methyl-8-(2,3,5-trifluorophenyl)-9H-2-purinyl]-1-ethynyl}-1-cyclopentanol]
21 | 231 to 234 | Cn1c(-c2cc(F)cc(F)c2F)nc2c(N)nc(C#CC3(O)CCC3)nc21 [Example 126, 1-{2-[6-Amino-9-methyl-8-(2,3,5-trifluorophenyl)-9H-2-purinyl]-1-ethynyl}-1-cyclobutanol]
22 | 225 to 229 | Cn1c(-c2cccc(F)c2F)nc2c(N)nc(C#CC3(O)CCC3)nc21 [Example 127, 1-{2-[6-Amino-8-(2,3-difluorophenyl)-9-methyl-9H-2-purinyl]-1-ethynyl}-1-cyclobutanol]
23 | 136 to 138 | Cn1c(-c2ccccc2F)nc2c(N)nc(C#CC3(O)CCC3)nc21 [Example 146, 1-{2-[6-Amino-8-(2-fluorophenyl)-9-methyl-9H-2-purinyl]-1-ethynyl}-1-cyclobutanol]
24 | 166 to 168 | Cn1c(-c2ccccc2F)nc2c(N)nc(C#CC3(O)CCCC3)nc21 [Example 147, 1-{2-[6-Amino-8-(2-fluorophenyl)-9-methyl-9H-2-purinyl]-1-ethynyl}-1-cyclopentanol]

Continued, compound first:

Row | SMILES | melting point [°C]
25 | CCn1c(-c2cccc(F)c2)nc2c(N)nc(C#CC(C)(C)O)nc21.Cl | 193 to 196
26 | Cl.Nc1nc(C#CC2(O)CCCC2)nc2c1nc(-c1cccc(F)c1)n2C1CC1 | 220 to 223
27 | CCC(O)(C#Cc1nc(N)c2nc(-c3cc(F)cc(F)c3)n(C)c2n1)CC.Cl | 207 to 210
28 | CC(C)C(C)(O)C#Cc1nc(N)c2nc(-c3cccc(F)c3)n(C)c2n1.Cl (stereo not shown) | 191 to 192
29 | Cl.Cn1c(-c2cccc(F)c2)nc2c(N)nc(C#CC(C)(O)C(C)(C)C)nc21 (stereo not shown) | 193 to 194
30 | Cl.Cn1c(-c2cccc(F)c2)nc2c(N)nc(C#CC3(O)CCC(c4ccccc4)CC3)nc21 (stereo not shown) | 247 to 249
31 | CCCn1c(-c2cccc(F)c2)nc2c(N)nc(C#CC(O)(CC)CC)nc21.Cl | 144 to 147
32 | CCn1c(-c2cc(F)cc(F)c2)nc2c(N)nc(C#CC(O)(CC)CC)nc21.Cl | 204 to 205
33 | CCn1c(-c2cc(F)cc(F)c2)nc2c(N)nc(C#CC(C)(C)O)nc21.Cl | 233 to 234
34 | CC(C)(O)C#Cc1nc(N)c2nc(-c3cc(F)cc(F)c3)n(C3CC3)c2n1.Cl | 245
35 | CCC(O)(C#Cc1nc(N)c2nc(-c3cccc(F)c3)n(C3CC3)c2n1)CC.Cl | 145 to 148
36 | CC(C)(O)C#Cc1nc(N)c2nc(-c3cccc(F)c3)n(C3CC3)c2n1.Cl | 143 to 145
37 | CCCn1c(-c2cc(F)cc(F)c2)nc2c(N)nc(C#CC(O)(CC)CC)nc21.Cl | 183 to 184
38 | CCC(O)(C#Cc1nc(N)c2nc(-c3ccc(C)o3)n(C)c2n1)CC.Cl | 229 to 230
39 | CCC(O)(C#Cc1nc(N)c2nc(-c3cc(F)cc(F)c3)n(C3CC3)c2n1)CC.Cl | 225
40 | Cl.Cn1c(-c2cc(F)cc(F)c2)nc2c(N)nc(C#CC(C)(C)O)nc21 | 237 to 238
41 | CCC(O)(C#Cc1nc(N)c2nc(-c3cc(F)ccc3F)n(C)c2n1)CC.Cl | 147 to 148
42 | CCn1c(-c2cccc(F)c2F)nc2c(N)nc(C#CC(C)(C)O)nc21.Cl | 213 to 215
43 | CCn1c(-c2cccc(F)c2F)nc2c(N)nc(C#CC(O)(CC)CC)nc21.Cl | 222 to 224
44 | CCCn1c(-c2cc(F)cc(F)c2)nc2c(N)nc(C#CC(C)(C)O)nc21.Cl | 148 to 150
45 | CCCn1c(-c2cccc(F)c2F)nc2c(N)nc(C#CC(C)(C)O)nc21.Cl | 230 to 233
46 | CCCn1c(-c2cccc(F)c2F)nc2c(N)nc(C#CC(O)(CC)CC)nc21.Cl | 187 to 188
47 | CC(C)(O)C#Cc1nc(N)c2nc(-c3cc(F)ccc3F)n(C3CC3)c2n1.Cl | 196 to 198

Row | SMILES | melting point [°C]
48 | CCC(O)(C#Cc1nc(N)c2nc(-c3cc(F)ccc3F)n(C3CC3)c2n1)CC.Cl | 215 to 216
49 | CCn1c(-c2cc(F)ccc2F)nc2c(N)nc(C#CC(C)(C)O)nc21.Cl | 215 to 218
50 | CCn1c(-c2cc(F)ccc2F)nc2c(N)nc(C#CC(O)(CC)CC)nc21.Cl | 163 to 166
51 | CCCn1c(-c2cc(F)ccc2F)nc2c(N)nc(C#CC(C)(C)O)nc21.Cl | 194 to 196
52 | CCCn1c(-c2cc(F)ccc2F)nc2c(N)nc(C#CC(O)(CC)CC)nc21.Cl | 164 to 165
53 | Cl.Cn1c(-c2ccco2)nc2c(N)nc(C#CCCO)nc21 | 161 to 164
54 | CCn1c(-c2cccc(F)c2)nc2c(N)nc(/C=C/C3(O)CCC3)nc21.Cl | 178 to 180
55 | CCCCC#Cc1nc(N)c2nc(-c3ccco3)n(C)c2n1.Cl | 178 to 181
56 | Cl.Cn1c(-c2cccc(F)c2)nc2c(N)nc(/C=C/C(C)(C)O)nc21 | > 290
57 | Cl.Cn1c(-c2cccc(F)c2)nc2c(N)nc(/C=C/C3(O)CCCCC3)nc21 | 222 to 225
58 | Cl.Cn1c(-c2ccco2)nc2c(N)nc(C#CCCC3CCCCC3)nc21 | 165 to 169
59 | Cl.Cn1c(-c2ccco2)nc2c(N)nc(C#CC3CCCCC3)nc21 | 155 to 160
60 | Cl.Nc1nc(C#CC2(O)CCCCC2)nc2c1nc(-c1cccc(F)c1)n2C1CCCC1 | 196 to 200
61 | CC(C)C(O)C#Cc1nc(N)c2nc(-c3cccc(F)c3)n(C)c2n1.Cl (stereo not shown) | 170 to 173
62 | CCC(O)C#Cc1nc(N)c2nc(-c3cccc(F)c3)n(C)c2n1.Cl (stereo not shown) | 171 to 175
63 | CCn1c(-c2cccc(F)c2)nc2c(N)nc(C#CC(O)(CC)CC)nc21.Cl | 150 to 153
64 | CN(C)c1ccc(-n2c(-c3cccc(F)c3)nc3c(N)nc(C#CC4(O)CCCCC4)nc32)cc1 (as salt: hydrochloride) [Example 3, 1-{2-[6-Amino-9-[4-(dimetylamino)phenyl]-8-(3-fluorophenyl)-9H-2-purinyl]-1-ethynyl}-1-cyclohexanol Dihydrochloride] | 255 to 260
65 | CC(O)C#Cc1nc(N)c2nc(-c3ccco3)n(C)c2n1 (stereo not shown) [Example 23, 4-[6-Amino-8-(2-furyl)-9-methyl-9H-2-purinyl]-3-butyn-2-ol] | 155 to 158
66 | COC1CCCCC1(O)C#Cc1nc(N)c2nc(-c3cccc(F)c3)n(C)c2n1 (stereo not shown) [Example 120, 1-{2-[6-Amino-8-(3-fluorophenyl)-9-methyl-9H-2-purinyl}-1-ethynyl}-2-methoxy-1-cyclohexanol] | 281 to 283
67 | COC1CCCCC1(O)C#Cc1nc(N)c2nc(-c3cccc(F)c3)n(C)c2n1 (stereo not shown) [Example 121, 1-{2-[6-Amino-8-(3-fluorophenyl)-9-methyl-9H-2-purinyl]-1-ethynyl}-2-methoxy-1-cyclohexanol] | 195 to 197
68 | Cn1c(-c2cccc(F)c2)nc2c(N)nc(C#CC3(O)C=CCC3)nc21 (stereo not shown) [Example 122, 1-{2-[6-Amino-8-(3-fluorophenyl)-9-methyl-9H-2-purinyl]-1-ethynyl}-2-cyclopenten-1-ol] | 191 to 193
69 | CCC(O)(C#Cc1nc(N)c2nc(-c3ccccc3F)n(C)c2n1)CC [Example 149] | 199 to 201
70 | Cn1c(-c2ccccc2F)nc2c(N)nc(C#CC(C)(C)O)nc21 [Example 156, 4-[6-Amino-8-(2-fluorophenyl)-9-methyl-9H-2-purinyl]-2-methyl-3-butyn-2-ol] | 198 to 199

Reference: patent US6579868B1, “Purine derivatives and adenosine A2 receptor antagonists serving as preventives/remedies for diabetes” (Eisai Co., Ltd., priority 1998, dated 2003)
